# Reference: ChEMBL document CHEMBL6096719, “Kidney Targeting Smart Antibiotic Discovery: Multimechanism Pleuromutilins for Pyelonephritis Therapy” (J Med Chem, 2025)
# Calls of active or inactive are those of the source. No cut-off for these calls is given here.
# Tests used:
# [1] = test system: Escherichia coli; assay: Antibacterial activity against Escherichia coli ATCC25922 infected in pyelonephritis C57BL/6 mouse model assessed as decrease in bacterial load in kidney at 3 to 10 mg/kg, iv qd for 3 days administered at 2 days post-infection; assay type: functional, organism-based; conditions: dose 3-10 mg/kg, time 3.0 day
# [2] = Cytotoxicity against human HepG2 cells assessed as reduction in cell viability incubated for 24 hrs by CCK8 assay; assay type: toxicity, cell-based
# [3] = Observed AUC (0 to infinity) in Sprague-Dawley rat at 10 mg/kg, po; assay type: ADME, organism-based; conditions: in vivo
# [4] = test system: Cell membrane; assay: Disruption of cell membrane in methicillin-resistant Staphylococcus aureus ATCC33591 assessed as dissipation of membrane potential at 0.125 to 0.5 ug/ml incubated for 30 mins by DiBAC4(3) probe based fluorescence spectrophotometry; conditions: dose 0.125-0.5 µg/ml
# [5] = test system: Mycoplasmopsis synoviae; assay: Anti-mycoplasma activity against Mycoplasma synoviae WVU1853 NCTC10124 assessed as inhibition of bacterial growth incubated for 3 to 5 days by broth microdilution method; assay type: functional; conditions: time 3-5 day
# [6] = test system: Escherichia coli; assay: Antibacterial activity against Escherichia coli ATCC25922 infected in pyelonephritis C57BL/6 mouse model assessed as decrease in kidney swelling at 3 to 10 mg/kg, iv qd for 3 days administered at 2 days post-infection; assay type: functional, organism-based; conditions: dose 3-10 mg/kg, time 3.0 day
# [7] = test system: Cell membrane; assay: Disruption of cell membrane in Escherichia coli ATCC25922 assessed as leakage of bacterial cell contents by measuring increase in conductivity of bacterial solution at MIC measured for 6 hrs by conductivity meter analysis
# [8] = test system: Acinetobacter baumannii; assay: Antibacterial activity against Acinetobacter baumannii ATCC 19606 assessed as inhibition of bacterial growth incubated for 24 hrs by broth microdilution method; assay type: functional
# [9] = test system: Cell membrane; assay: Disruption of cell membrane in Escherichia coli ATCC25922 assessed as induction of cell death by measuring increase in propidium iodide fluorescence intensity at 0.5 ug/ml incubated for 2 hrs by fluorescence field microscopy; assay type: subcellular; conditions: dose 0.5 µg/ml
# [10] = AUC (0 to 24 hrs) in Sprague-Dawley rat at 5 mg/kg, iv; assay type: ADME, organism-based; conditions: in vivo
# [11] = test system: Staphylococcus aureus; assay: Antibacterial activity against methicillin-resistant Staphylococcus aureus ATCC33591 infected in systemic intraperitoneal infection Kunming mouse model assessed as decrease in inflammation, neutrophil infiltration and disordered spleen structure at 5 mg/kg, ip treated at 1 hr post-infection and measured after 7 days by Hematoxylin-Eosin staining based analysis; assay type: functional, organism-based; conditions: time 7.0 day
# [12] = test system: Staphylococcus aureus; assay: Antibacterial activity against methicillin-resistant Staphylococcus aureus ATCC33591 assessed as post-antibiotic effect at 0.25 ug/ml incubated for 1 hr followed by washing and incubation in MHB medium for 10 hrs and later cultured on agar plate for overnight; assay type: functional; conditions: dose 0.25 µg/ml
# [13] = Observed MRT (0 to infinity) in Sprague-Dawley rat at 5 mg/kg, iv; assay type: ADME, organism-based; conditions: in vivo
# [14] = test system: Staphylococcus aureus; assay: Antibacterial activity against methicillin-resistant Staphylococcus aureus ATCC33591 infected in systemic intraperitoneal infection Kunming mouse model assessed as increase in animal's survival rate at 5 to 20 mg/kg, ip treated at 1 hr post-infection and measured for 7 days; assay type: functional, organism-based; conditions: dose 5-20 mg/kg, time 7.0 day
# [15] = test system: Metamycoplasma hominis; assay: Anti-mycoplasma activity against Mycoplasma hominis PG-21 ATCC23114 assessed as inhibition of bacterial growth incubated for 1 to 2 days by broth microdilution method; assay type: functional; conditions: time 1-2 day
# [16] = test system: Klebsiella pneumoniae; assay: Antibacterial activity against multidrug-resistant Klebsiella pneumoniae 893 assessed as inhibition of bacterial growth incubated for 24 hrs by broth microdilution method; assay type: functional
# [17] = test system: Staphylococcus aureus; assay: Antibacterial activity against methicillin-resistant Staphylococcus aureus ATCC33591 infected in systemic intraperitoneal infection Kunming mouse model assessed as decrease in inflammation and neutrophil infiltration in liver at 5 mg/kg, ip treated at 1 hr post-infection and measured after 7 days by Hematoxylin-Eosin staining based analysis; assay type: functional, organism-based; conditions: time 7.0 day
# [18] = test system: Escherichia coli; assay: Antibacterial activity against Escherichia coli ATCC25922 infected in pyelonephritis C57BL/6 mouse model assessed as saturated bacterial clearance at >=5 mg/kg, iv qd for 3 days administered at 2 days post-infection; assay type: functional, organism-based; conditions: time 3.0 day
# [19] = Tmax in Sprague-Dawley rat at 5 mg/kg, iv; assay type: ADME, organism-based; conditions: in vivo
# [20] = test system: Mycoplasmoides pneumoniae; assay: Anti-mycoplasma activity against Mycoplasma pneumoniae M129 ATCC29342 assessed as inhibition of bacterial growth incubated for 3 to 5 days by broth microdilution method; assay type: functional; conditions: time 3-5 day
# [21] = Observed apparent volume of distribution in Sprague-Dawley rat at 5 mg/kg, iv; assay type: ADME, organism-based; conditions: in vivo, read-out: Vz
# [22] = test system: Escherichia coli; assay: Antibacterial activity against Escherichia coli ATCC25922 assessed as post-antibiotic effect at 0.25 ug/ml incubated for 1 hr followed by washing and incubation in MHB medium for 10 hrs and later cultured on agar plate for overnight; assay type: functional; conditions: dose 0.25 µg/ml
# [23] = test system: Staphylococcus aureus; assay: Antibacterial activity against methicillin-resistant Staphylococcus aureus 171 assessed as inhibition of bacterial growth incubated for 24 hrs by broth microdilution method; assay type: functional
# [24] = test system: Cell membrane; assay: Disruption of cell membrane in methicillin-resistant Staphylococcus aureus ATCC33591 assessed as disrupted, furrowed, crumpled cell envelope at 0.125 to 0.5 ug/ml incubated for 2 hrs by propidium iodide staining based confocal laser scanning microscopy; assay type: subcellular; conditions: dose 0.125-0.5 µg/ml
# [25] = test system: Cell membrane; assay: Disruption of cell membrane in Escherichia coli ATCC25922 assessed as disrupted, furrowed, crumpled cell envelope at 0.125 to 0.5 ug/ml incubated for 2 hrs by propidium iodide staining based confocal laser scanning microscopy; assay type: subcellular; conditions: dose 0.125-0.5 µg/ml
# [26] = test system: Staphylococcus aureus; assay: Antibiofilm activity against methicillin-resistant Staphylococcus aureus ATCC33591 assessed as disruption of preformed biofilms at 0.5 ug/ml incubated for 24 hrs with preformed biofilms by crystal violet staining based analysis; assay type: functional; conditions: dose 0.5 µg/ml
# [27] = test system: Cell membrane; assay: Disruption of cell membrane in Escherichia coli ATCC25922 assessed as decrease in intracellular pH at 0.125 ug/ml incubated for 30 mins by cFDA-SE probe based fluorescence analysis; conditions: dose 0.125 µg/ml
# [28] = Half-life in Sprague-Dawley rat at 10 mg/kg, po; assay type: ADME, organism-based; conditions: in vivo
# [29] = test system: Mesomycoplasma hyorhinis; assay: Anti-mycoplasma activity against Mycoplasma hyorhinis BTS-7 NCTC10130 assessed as inhibition of bacterial growth incubated for 3 to 5 days by broth microdilution method; assay type: functional; conditions: time 3-5 day
# [30] = test system: Staphylococcus aureus; assay: Antibacterial activity against methicillin-resistant Staphylococcus aureus 222 assessed as inhibition of bacterial growth incubated for 24 hrs by broth microdilution method; assay type: functional
# [31] = test system: Cell membrane; assay: Disruption of cell membrane in Escherichia coli ATCC25922 assessed as induction of cell death by measuring increase in propidium iodide fluorescence intensity at 0.5 ug/ml incubated for 2 hrs by bright field microscopy; assay type: subcellular; conditions: dose 0.5 µg/ml
compound,measurement,setting,value
C=C[C@]1(C)C[C@@H](OC(=O)CSc2nc3cc[n+](Cc4ccc(C)cc4)cc3[nH]2)[C@]2(C)[C@H](C)CC[C@]3(CCC(=O)[C@H]32)[C@@H](C)[C@@H]1O.[Br-],Activity,[1],Active
same,CC50 at 24 h,[2],> 100 µM
same,AUC(0-inf),[3],15800 ng·h/mL
same,Activity,[4],Active
same,MIC,[5],< 0.04 µg/mL
same,Activity,[6],Active
same,Activity,[7],Active
same,MIC,[8],< 1 µg/mL
same,Activity,[9],Active
same,AUC(0-t),[10],16200 ng·h/mL
same,Activity,[11],Active; Nearly Restoration Of Normal Histology Observed
same,PAE,[12],1.53 h
same,MRT inf,[13],1.14 h
same,Activity,[14],Active; Superior Efficacy Over Valnemulin Observed
same,MIC,[15],< 0.04 µg/mL
same,MIC,[16],2 µg/mL
same,Activity,[17],Active; Nearly Restoration Of Normal Histology Observed
same,Activity,[18],Active
same,Tmax,[19],1.8 min
same,MIC,[20],< 0.008 µg/mL
same,Vd,[21],0.511 L/kg
same,PAE,[22],1.78 h
same,MIC,[23],4 µg/mL
same,Activity,[24],Active
same,Activity,[25],Active
same,Activity,[26],84.31%
same,Activity,[27],Active
same,half-life,[28],1.57 h
same,MIC,[29],< 0.04 µg/mL
same,MIC,[30],4 µg/mL
same,Activity,[31],Active
